pEC50: −log10 of the molar value. Bounds are passed on as bounds.

Results on 58 compounds are retold here after patent publication US12583858B2 (Genentech, Inc., priority 2015, dated 2026).

T1 sequence (P48775 whole entry): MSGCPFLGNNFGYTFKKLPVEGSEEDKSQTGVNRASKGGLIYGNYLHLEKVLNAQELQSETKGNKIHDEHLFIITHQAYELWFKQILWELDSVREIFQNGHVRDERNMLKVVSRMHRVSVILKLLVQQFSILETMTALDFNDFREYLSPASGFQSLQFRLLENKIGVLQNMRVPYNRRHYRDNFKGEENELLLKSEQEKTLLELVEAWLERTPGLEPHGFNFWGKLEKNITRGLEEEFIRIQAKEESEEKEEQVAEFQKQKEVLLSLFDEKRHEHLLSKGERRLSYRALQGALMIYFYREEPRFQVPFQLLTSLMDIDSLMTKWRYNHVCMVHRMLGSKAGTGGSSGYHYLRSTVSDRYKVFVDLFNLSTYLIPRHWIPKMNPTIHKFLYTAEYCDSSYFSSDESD

The assay concerns the target T1, TDO2 (Homo sapiens, UniProt P48775).
T1 construct: decreased levels of NFK in SW48 cells (high TDO expressing cells)
The assay can be described thus: TDO2 cell assay (NFK GreenScreen, SW48 cells). It is filed as cell-based. To be noted: SW48 cells (high TDO expressing), 200 uM tryptophan, 24 hours; Table 3; read-out: TDO2 Cell Fluor EC50.
A word on the pEC50: it is the negative decadic logarithm of the EC50, by convention in mol/L. On to `OC1(C2c3ccccc3-c3cncn32)CCOC1` (single isomer, unassigned) [Example 129c], for which the negative-log EC50 (pEC50) is 5.35.

On to `OC1CC2(CCC2)C1C1c2ccccc2-c2cncn21` (single isomer, unassigned) [Example 67f], for which the pEC50 was 7.34.

Consider `Nc1ncc2c(n1)CCC(C1c3ccccc3-c3cncn31)C2O` (single isomer, unassigned) [Example 111e], for which the negative-log EC50 (pEC50) was 5.24.

For the compound `N#Cc1ccc2c(c1)C(O)C(C1c3ccccc3-c3cncn31)CC2` (single isomer, unassigned) [Example 113b], the pEC50 is 5.30.

As for `OC1(C2c3ccccc3-c3cncn32)CCOC1` (single isomer, unassigned) [Example 129b], the pEC50 is 4.77.

Take `CS(=O)(=O)N1CCC2(CC1)CC(C1c3ccccc3-c3cncn31)C2O` (single isomer, unassigned) [Example 179g]: the pEC50 is 6.10.

For the compound `Cc1ccc2c(c1)C(C1COCC1O)n1cncc1-2` (single isomer, unassigned) [Example 110a], the pEC50 is 6.28.

Turning to `Cn1cc2c(n1)C(O)C(C1c3ccccc3-c3cncn31)CC2` (single isomer, unassigned) [Example 139-1e], the pEC50 is < 4.60.

For the compound `NS(=O)(=O)N1CC[C@@H]([C@H]2c3ccccc3-c3cncn32)[C@H](O)C1` [Example 39a, (3S,4S)-3-hydroxy-4-((S)-5H-imidazo[5,1-a]isoindol-5-yl)piperidine-1-sulfonamide], the pEC50 is < 4.60.

Regarding `OC1CC2(CC2)C1C1c2ccccc2-c2cncn21` (single isomer, unassigned) [Example 72h], the negative logarithm of the EC50 (pEC50) is 4.74.

Consider `CS(=O)(=O)c1ccc2c(c1)OCC(C1c3ccccc3-c3cncn31)C2O` (single isomer, unassigned) [Example 91c], for which the pEC50 was < 4.60.

As to `CC1(C)COCC(C2c3ccccc3-c3cncn32)C1O` (single isomer, unassigned) [Example 66c], the pEC50 was 5.32.

In the case of `NS(=O)(=O)N1CCC2(CCC(C3c4ccccc4-c4cncn43)C2O)CC1` (single isomer, unassigned) [Example 182d], the pEC50 was 7.04.

In the case of `OC1c2cnccc2CC1C1c2ccccc2-c2cncn21` (single isomer, unassigned) [Example 71a], the pEC50 is 4.77.

Turning to `N#CCN1CCC(O)C(C2c3ccccc3-c3cncn32)C1` (single isomer, unassigned) [Example 58a], the pEC50 was 6.44.

Regarding `Cc1nc2c(o1)CCC(C1c3ccccc3-c3cncn31)C2O` (single isomer, unassigned) [Example 178a], the negative-log EC50 (pEC50) was 6.92.

Consider `OC1CCCOCC1C1c2ccccc2-c2cncn21` (single isomer, unassigned) [Example 86c], for which the pEC50 was < 4.60.

In the case of `OC1(C2c3ccccc3-c3cncn32)CC(F)(F)C1` (stereo not shown) [Example 50, 3,3-difluoro-1-(5H-imidazo[5,1-a]isoindol-5-yl)cyclobutan-1-ol], the pEC50 is 5.59.

Regarding `OC1COCC1C1c2ccc(F)cc2-c2cncn21` (single isomer, unassigned) [Example 30c], the negative-log EC50 (pEC50) is 5.68.

For the compound `OC1(C2c3ccccc3-c3cncn32)CCCc2ccncc21` (single isomer, unassigned) [Example 141b], the pEC50 is 5.42.

Take `OC1CC(CF)(CF)C1C1c2ccccc2-c2cncn21` (single isomer, unassigned) [Example 150e]: the pEC50 was 7.28.

As to `OC1CC2(CC2)C1C1c2ccccc2-c2cncn21` (single isomer, unassigned) [Example 72f], the pEC50 is 4.96.

As to `OC1c2cnncc2CCC1C1c2ccccc2-c2cncn21` (single isomer, unassigned) [Example 112d], the pEC50 is 5.25.

Take `OC1(C2c3ccccc3-c3cncn32)COC1` (racemic) [Example 48, 3-(5H-imidazo[5,1-a]isoindol-5-yl)oxetan-3-ol]: the pEC50 is 5.14.

For `Nc1ccc2c(n1)CCC(C1c3ccccc3-c3cncn31)C2O` (single isomer, unassigned) [Example 121a], the pEC50 was 6.08.

On to `O[C@@H]1CCOC[C@H]1[C@@H]1c2ccc(F)cc2-c2cncn21` [Example 34d, (3R,4R)-3-((R)-8-fluoro-5H-imidazo[5,1-a]isoindol-5-yl)-tetrahydro-2H-pyran-4-ol], for which the negative-log EC50 (pEC50) is 6.64.

In the case of `N#Cc1ccc2c(c1)[C@@H](O)[C@@H]([C@H]1c3ccccc3-c3cncn31)CC2` (stereo in doubt) [Example 113d, (7R,8S)-8-hydroxy-7-((S)-5H-imidazo[5,1-a]isoindol-5-yl)-5,6,7,8-tetrahydronaphthalene-2-carbonitrile], the pEC50 is 4.92.

As for `CC1(C)COCC(C2c3ccccc3-c3cncn32)C1O` (single isomer, unassigned) [Example 66g], the pEC50 is 7.15.

Turning to `O[C@H](C1CCCCC1)[C@@H]1c2ccccc2-c2cncn21` [Example 148a, (R)-cyclohexyl((S)-5H-imidazo[5,1-a]isoindol-5-yl)methanol], the pEC50 was 4.85.

Turning to `NS(=O)(=O)c1ccc2c(c1)CCC(C1c3ccccc3-c3cncn31)C2O` (single isomer, unassigned) [Example 100a], the pEC50 was 6.92.

`OC1C(C2c3ccccc3-c3cncn32)CC12CCOCC2` (single isomer, unassigned) [Example 57f]: the pEC50 was 6.14.

On to `OC1COCCC1C1c2cccc(F)c2-c2cncn21` (single isomer, unassigned) [Example 99b], for which the pEC50 is < 4.60.

As to `N#Cc1cnn2c1C(O)C(C1c3ccccc3-c3cncn31)CC2` (single isomer, unassigned) [Example 156b], the pEC50 is 6.62.

In the case of `Cc1ccc2c(c1)-c1cncn1C2C1COCC1O` (single isomer, unassigned) [Example 171a], the pEC50 was 6.00.

In the case of `OC1CCOCC1C1c2c(F)cccc2-c2cncn21` (single isomer, unassigned) [Example 73a], the pEC50 is 5.19.

For the compound `NS(=O)(=O)c1ccc2c(c1)C(O)C(C1c3ccccc3-c3cncn31)CC2` (single isomer, unassigned) [Example 105b], the pEC50 is 5.07.

Regarding `NC(=O)c1ccc2c(c1)C(O)C(C1c3ccccc3-c3cncn31)CC2` (single isomer, unassigned) [Example 122e], the pEC50 is 7.05.

Regarding `Nc1cc2n(n1)CCC(C1c3ccccc3-c3cncn31)C2O` (single isomer, unassigned) [Example 161g], the negative-log EC50 (pEC50) was < 4.60.

Take `CS(=O)(=O)N1CCC(C2c3ccccc3-c3cncn32)C(O)C1` [Example 64c, (3R,4R)-4-((R)-5H-imidazo[5,1-a]isoindol-5-yl)-1-(methylsulfonyl)piperidin-3-ol]: the pEC50 was < 4.60.

On to `CCS(=O)(=O)N1CCC(O)C(C2c3ccccc3-c3cncn32)C1` (single isomer, unassigned) [Example 15d], for which the pEC50 was < 4.60.

For `OC1COCCC1C1c2ccccc2-c2cncn21` (single isomer, unassigned) [Example 06h], the pEC50 is < 4.60.

In the case of `OC1C(C2c3ccccc3-c3cncn32)CCC12CCOCC2` (single isomer, unassigned) [Example 68f], the pEC50 is 6.92.

For the compound `OC1(C2c3ccccc3-c3cncn32)CCCc2ccncc21` (single isomer, unassigned) [Example 141d], the pEC50 was < 4.60.

For the compound `OC1CC(C2c3ccccc3-c3cncn32)C1O` (stereo not shown) [Example 158a, 3-(5H-imidazo[5,1-a]isoindol-5-yl)cyclobutane-1,2-diol], the pEC50 is 5.10.

Take `O[C@H]1CC(CF)(CF)[C@H]1[C@@H]1c2ccccc2-c2cncn21` [Example 150c, (1S,2S)-3,3-bis(fluoromethyl)-2-((R)-5H-imidazo[5,1-a]isoindol-5-yl)cyclobutan-1-ol]: the pEC50 is 6.96.

Turning to `Nc1ccc2c(n1)CCC(C1c3ccccc3-c3cncn31)C2O` (single isomer, unassigned) [Example 121b], the pEC50 is < 4.60.

As to `OC1c2cccn2CCC1C1c2ccccc2-c2cncn21` (single isomer, unassigned) [Example 136c], the pEC50 is 5.17.

`Cc1cnn2c1C(O)C(C1c3ccccc3-c3cncn31)CC2` (single isomer, unassigned) [Example 159b]: the pEC50 is 4.85.

Take `CC(C)S(=O)(=O)N1CCC(C2c3ccccc3-c3cncn32)C(O)C1` (single isomer, unassigned) [Example 89a]: the pEC50 was 4.85.

Take `O[C@@H]1c2c(Cl)cnn2CC[C@@H]1[C@H]1c2ccccc2-c2cncn21` (single isomer, unassigned) [Example 160d]: the pEC50 is 5.22.

In the case of `NC(=O)c1ccc2c(n1)CCC(C1c3ccccc3-c3cncn31)C2O` (single isomer, unassigned) [Example 104f], the pEC50 is 5.07.

As to `OC1c2[nH]ncc2CCC1C1c2ccccc2-c2cncn21` (single isomer, unassigned) [Example 157c], the negative logarithm of the EC50 (pEC50) was 4.85.

With `OC1c2ccnn2CCCC1C1c2ccccc2-c2cncn21` (single isomer, unassigned) [Example 133c], the pEC50 is 5.22.

In the case of `OC1CC2(COC2)C1C1c2ccccc2-c2cncn21` (single isomer, unassigned) [Example 87c], the negative-log EC50 (pEC50) is 5.22.

As for `OC1c2ccccc2CC1C1c2ccccc2-c2cncn21` (single isomer, unassigned) [Example 19c], the negative-log EC50 (pEC50) was 6.74.

As to `OC1CCC(F)(F)CC1C1c2ccccc2-c2cncn21` (single isomer, unassigned) [Example 18h, 4,4-difluoro-2-(5H-imidazo[5,1-a]isoindol-5-yl)cyclohexan-1-ol], the pEC50 was 4.89.

With `CS(=O)(=O)c1ccc2c(c1)CCC(C1c3ccccc3-c3cncn31)C2O` (single isomer, unassigned) [Example 36f], the negative logarithm of the EC50 (pEC50) was 6.85.

Consider `CC1(C)COCC(C2c3ccccc3-c3cncn32)C1O` (single isomer, unassigned) [Example 66f], for which the pEC50 was 6.80.
